# Literature values, collected in patent publication US20110178167A1, “METHOD FOR INHIBITING ACTIVITY AND/OR EXPRESSION OF MATRIX METALLOPROTEINASE, INHIBITING PHOSPHORYLATION OF MITOGEN-ACTIVATED PROTEIN KINASE, AND/OR PROMOTING EXPRESSION OF COLLAGEN USING TERMINALIA CATAPPA LEAF EXTRACT” (priority 2010, published 2011).
# System: matrix metalloproteinase-1
# Details: related art
row,SMILES,expression of matrix metalloproteinase-1
1,C[C@@H]1CC[C@]2(C(=O)O[C@@H]3O[C@H](CO)[C@@H](O)[C@H](O)[C@H]3O)CC[C@]3(C)C(=CC[C@@H]4[C@@]5(C)CC[C@H](O[C@@H]6OC[C@H](O)[C@H](O)[C@H]6O)C(C)(C)[C@@H]5CC[C@]43C)[C@@H]2[C@]1(C)O [ziyuglycoside-I],inhibited
2,O=c1cc(-c2ccc(O)c(-c3c(O)c(O)c(O)c4c(=O)cc(-c5ccc(O)cc5)oc34)c2)oc2cc(O)cc(O)c12 [sumaflavone],inhibited
